In ChEMBL document CHEMBL1159103, “Discovery of biaryl inhibitors of H+/K+ ATPase” (Bioorg Med Chem Lett, 2010):

Test: Inhibition of H(+)/K(+) ATPase

| Structure (SMILES) | pIC50 |
| --- | --- |
| Cc1cccc(C)c1CNc1cccc(-c2nc(C)c(C)[nH]2)c1 | 4.3 |
| Cc1cccc(C)c1-c1ccc(O)c(-c2nc(C)c(C)[nH]2)c1 | 5.7 |
| Cc1cccc(C)c1-c1cc(-c2nc(C)c(C)[nH]2)co1 | < 4 |
| Cc1nc(-c2cccc(-c3ccccc3)c2)[nH]c1C | 4.7 |
| CNCc1cccc(-c2c(C)cccc2C)c1 | 4.3 |
| Cc1cccc(C)c1-c1cccc(-c2nc(C)c(C)[nH]2)c1 | 5.2 |
| CCc1cccc(CC)c1-c1cccc(-c2nc(C)c(C)[nH]2)c1 | 5.1 |
| Cc1cccc(C)c1Nc1cccc(-c2nc(C)c(C)[nH]2)c1 | 4.9 |
| Cc1cccc(C)c1-c1ccc(-c2nc(C)c(C)[nH]2)cc1 | 4.4 |
| Cc1cccc(C)c1-c1cccc(-c2ncc[nH]2)c1 | 4.5 |
| Cc1ccc(-c2nc(C)c(C)[nH]2)cc1-c1c(C)cccc1C | 4.9 |
| Cc1cccc(C)c1-c1cccc(-c2nc(C)c(C)n2C)c1 | 4.6 |
| CCCn1ccnc1-c1cccc(-c2c(C)cccc2C)c1 | 4.3 |
| Cc1cccc(C)c1-c1cccc(-c2cn(C)c(C)n2)c1 | 4.8 |
| Cc1cccc(C)c1-c1cccc(-c2nccn2C)c1 | 5.2 |
| Cc1nc(-c2ccccc2-c2ccccc2)[nH]c1C | 4.2 |
| COc1cc(-c2c(C)cccc2C)cc(-c2nc(C)c(C)[nH]2)c1OC | 4.6 |
| Cc1cccc(C)c1-c1cccc(-c2nc3ccccc3[nH]2)c1 | 4.4 |
| CCCn1c(-c2cc(-c3c(C)cccc3C)ccc2OC)nc(C)c1C | 4.9 |
| Cc1ccccc1-c1cccc(-c2nc(C)c(C)[nH]2)c1 | 5.1 |
| Cc1cccc(C)c1-c1ccc(OCC(N)=O)c(-c2nc(C)c(C)[nH]2)c1 | 5.7 |
| COc1c(-c2c(C)cccc2C)cc2c(c1-c1nc(C)c(C)[nH]1)OCC2 | 5.5 |

| Structure (SMILES) | pIC50 |
| --- | --- |
| Cc1cccc(C)c1-c1cccc(-c2cncn2C)c1 | 4.4 |
| COc1ncccc1-c1cc(-c2nc(C)c(C)[nH]2)cc(-c2c(C)cccc2C)c1 | 4.8 |
| Cc1cccc(C)c1-c1ccc(-c2nc(C)c(C)[nH]2)s1 | 4.1 |
| COc1c(-c2nc(C)c(C)[nH]2)cccc1-c1c(C)cccc1C | < 4 |
| Cc1cccc(C)c1-c1cc(-c2nc(C)c(C)[nH]2)cs1 | 4.5 |
| Cc1nc(-c2cccc(CCc3ccccc3)c2)[nH]c1C | 4.3 |
| COc1ccc(-c2c(C)cccc2C)cc1-c1nc(C)c(C)[nH]1 | 6.1 |
| COc1ccc(-c2nc(C)c(C)[nH]2)cc1-c1c(C)cccc1C | 4.9 |
| Cc1cccc(C)c1-c1cccc(N2CCN(C)CC2)c1 | 4.4 |
| COc1c(-c2c(C)cccc2C)cc2ccoc2c1-c1nc(C)c(C)[nH]1 | 5.4 |
| CCOc1ccc(-c2c(C)cccc2C)cc1-c1nc(C)c(C)[nH]1 | 5.6 |
| Cc1cccc(C)c1-c1ccc(OC(F)F)c(-c2nc(C)c(C)[nH]2)c1 | 5 |
| COC(=O)COc1ccc(-c2c(C)cccc2C)cc1-c1nc(C)c(C)[nH]1 | 5.9 |
| Cc1cccc(C)c1-c1cccc(-c2cc(N)ccn2)c1 | 4.5 |
| Cc1cccc(C)c1-c1ccc(OCc2ccccc2)c(-c2nc(C)c(C)[nH]2)c1 | 5.3 |
| Cc1nc(-c2cccc(C(=O)Nc3ccccc3)c2)[nH]c1C | 4 |
| CCc1nc(-c2cccc(-c3c(C)cccc3C)c2)[nH]c1CC | 4.8 |
| Cc1cccc(C)c1-c1ccc(-c2nc(C)c(C)[nH]2)o1 | 4.9 |
| Cc1cscc1-c1cccc(-c2nc(C)c(C)[nH]2)c1 | 4.8 |
| Cc1cccc(C)c1-c1cc(-c2nc(C)c(C)[nH]2)ccc1-c1ccncc1 | < 4 |
| Cc1nc(-c2cccc(/C=C/c3ccccc3)c2)[nH]c1C | 4.4 |
